Source: patent US5278158A, “Oxazinobenzazole compounds” (Yamanouchi Pharmaceutical Co., Ltd., priority 1991, dated 1994)

Tests used:
[1] = test system: 3,4-Diaminopyridine Induced Rhythmic Contractions; assay: Effects on 3,4-Diaminopyridine Induced Rhythmic Contractions (isolated coronary artery rings); set-up: species or system Mongrel dogs; details: Canis lupus familiaris, isolated dog coronary artery rings, 10 mM 3,4-diaminopyridine; for IC50: read-out: IC50 (inhibitory effect on the frequency of the rhythmic contractions); for IC100: read-out: IC100 (inhibitory effect on the frequency of the rhythmic contractions)
Experimental: (1) Effects on 3,4-Diaminopyridine Induced Rhythmic Contractions
The experiment was carried out according to the method of Uchida, Sugimoto, et al. (Myakkangaku, 24, 133-143, 1984). Mongrel dogs of either sex were anesthetized with intravenous administration of 30 mg/Kg pentobarbital and were sacrificed by bleeding and then, the heart was excised from each animal. In the Krebs-Henseleit solution, the left circumflex branch or the anterior descending branch was isolated and cut into rings about 2 mm in width. The ring segments were fixed to a stainless-steal hook, and suspended in 37° C. Krebs-Henseleit solution aerated with a mixed gas (95% O2 and 5% CO2) under a tension load of 1.0 g, and isometric contractions were recorded. After the specimen was stabilized for 30 minutes, and rhythmic contractions were induced by treatment with 10 mM 3,4-diamiopyridine. After the amplitude and frequency of rhythmic contractions became substantially steady, a test compound was cumulatively added to the nutritious solution, and the concentration-response curves for the amplitude and frequency of the contractions were constructed and efficacy was evaluated.
[…] (the concentrations required to inhibit the frequency of the rhythmic contractions) of the compounds of this invention are between 0.1 and 10 μM.

coronary artery = assay: Coronary Vasodilating Effect (anesthetized dogs, intracoronary); assay type: in vivo, Mongrel dogs; details: i.a.; action of 300 μg papaverine set as 100%
Experimental: (3) Coronary Vasodilating Effect
Mongrel dogs of either sex were anesthetized with intravenous administration of 30 mg/Kg pentobarbital.
After tracheal intubation, the experiments was conducted under artificial respiration. After thoracotomy, the left circumflex branch was perfused with the autologous blood derived from the carotid artery at a constant pressure through an extracorporeal circuit. Coronary blood flow was measured with an electromagnetic flow probe installed in the extra-corporeal circuit. The test compound was administered directly into the coronary artery through the extra-corporeal circuit and the coronary vasodilating effects were evaluated.
The dilating action was expressed as percentage with the action of 300 μg papaverine being set as 100%, and the dose required to produce a blood flow increase of 100% (ED100pap) was calculated.

blood pressure [2] = assay: Hypotensive Effect in spontaneously hypertensive rats (oral); assay type: in vivo, Spontaneously hypertensive rats (SHR) of Okamoto-Aoki strain; details: 300 μg/Kg p.o.; conscious SHR
Experimental: Spontaneously hypertensive rats (SHR) of Okamoto-Aoki strain were anesthetized with pentobarbital, 60 mg/kg i.p. Then, a cannula for blood pressure measurement was indwelt in the left common carotid artery and the other end of the cannula was led out extracorporeally from the posterior neck. After a stabilization period of 4-5 days, blood pressure and heart rate were measured under freely moving condition.
The test compound was suspended in 0.5% methylcellulose solution and the suspension was orally administered in a volume of 5 ml/Kg and the efficacy was evaluated.

blood pressure [3] = assay: Effects on the Cardiovascular Systems (anesthetized dogs, i.v.); assay type: in vivo, Mongrel dogs; details: 10 μg/kg i.v.
Experimental: (2) Effects on the Cardiovascular Systems
Mongrel dogs of either sex were anesthetized with intravenous administration of 30 mg/Kg pentobarbital, and after tracheal intubation, the experiments were performed under artificial respiration. After thoracotomy, heart rate, blood pressure, left ventricle pressure, max. dLVP/dt, pulmonary artery pressure, central venous pressure, cardiac output and the coronary artery blood flow were measured. The effects of test compound on these parameters were evaluated by administering it through the cannula indwelt in the femoral vein. The present compounds are effective for lowering blood pressure at a dose of 1 to 1000 μg/kg i.v.

Structure (SMILES)	IC50 [1]	IC100 [1]	ED100PAP (dose required to produce a blood flow increase of 100%) (coronary artery)	MBP (blood pressure [2])	MBP (mean blood pressure-lowering effect) (blood pressure [3])
CC1(C)CN(c2cccc[n+]2[O-])c2cc3nonc3cc2O1 [Example 2, 2-(7,8-dihydro-6,6-dimethyl-6H-[1,4]oxazino[2,3-f][2,1,3]benzoxadiazol-8-yl)pyridine N-oxide]	150 nM	0.66 µM	3.5 µg	-45 Δ%	-33 Δ%
CC1(C)CN(c2cccc[n+]2[O-])c2cc3no[n+]([O-])c3cc2O1 [Example 4, 7,8-Dihydro-6,6-dimethyl-8-(2'-pyridyl)-6H-[1,4]oxazino[2,3-f][2,1,3]benzoxadiazole 3,1'-dioxide]	170 nM	1.23 µM	–	–	-10 Δ%
